Test results published in patent publication US20260001928A1 (CORTERIA PHARMACEUTICALS, priority 2022, published 2026).
*1 amine or outer side, *2 acyl side, *3 side chain or, on linkers, in order; H or OH if unused. Where a SMILES comes first, the peptide text is derived from it. Side-chain parts run from the residue outwards. [ ]: non-standard residue; d: D form. The star is where a group is joined. C18 diacid = O=C(O)CCCCCCCCCCCCCCCCC(=O)*; C16 diacid = O=C(O)CCCCCCCCCCCCCCC(=O)*; γGlu = O=C(O)[C@H](CCC(=O)[*:2])N[*:1]; NMeI = CC[C@H](C)[C@H](NC)C(=O)O; AEEA = NCCOCCOCC(=O)O; Aib = CC(C)(N)C(=O)O

Test system: human LAD2 cells
Type: cell-based
Experimental: LAD2 cells (20000 cells/well, 96-well plates and 10,000 cells/well in 384-well plates) were incubated with compounds for 30 min. The R-hexosaminidase released into the supernatants and in cell lysates was quantified using the fluorogenic substrate 4-methylumbelliferyl-N-acetyl-b-D-glucosaminide.
On the day of the assay, the lyophilized peptides were dissolved in DMSO and/or PBS 1× pH 7.4, to obtain stock solutions. The stock solutions were used to prepare working serial dilutions to have final concentrations in assay ranging from 50, 100 or 300 to 0.1 or 0.001 μM. Each peptide was tested in biological duplicates. When compounds were dissolved in DMSO, the final solvent concentration in assay was 0.5% (v/v).
The percentage of degranulation, expressed as % of R-hexosaminidase release, was calculated by dividing the fluorescence signal of the supernatant by the sum of the signals from the supernatant and cell pellet (lysed with Triton X-100, final 1%) and multiplying by 100.
Dose-response curves were generated by plotting the % of R-hexosaminidase release versus total release of cells treated with triton (y-axis) against the concentrations of peptides tested (x-axis). The Mast Cell Degranulation (MCD) EC50 values and standard errors were calculated using XLfit 5.5.0.5 based on the following equation:
4 Parameter Sigmoidal Model: f=(A+((B−A)/(1+((C/x)^D))))
where A=Emin, B=Emax, C=EC50 and D=slope

| EC50 [µM] | SMILES |
| --- | --- |
| 32.9 | CC[C@H](C)[C@H](N)C(=O)N[C@H](C(=O)N[C@@H](CC(C)C)C(=O)N[C@@H](CO)C(=O)N[C@@H](CC(C)C)C(=O)N[C@@H](CC(=O)O)C(=O)N[C@H](C(=O)N1CCC[C@H]1C(=O)N[C@H](C(=O)N[C@@H](CCCCN)C(=O)N[C@@H](CC(C)C)C(=O)N[C@@H](CCCCNC(=O)CC[C@H](NC(=O)CCCCCCCCCCCCCCC(=O)O)C(=O)O)C(=O)N[C@@H](CCC(N)=O)C(=O)N[C@H](C(=O)N[C@@H](CC(C)C)C(=O)N[C@@H](CC(C)C)C(=O)N[C@@H](CCCCN)C(=O)N[C@@H](CCC(N)=O)C(=O)N[C@@H](CCC(=O)O)C(=O)N[C@@H](CCCNC(=N)N)C(=O)N[C@@H](CCC(N)=O)C(=O)N[C@@H](CCCCN)C(=O)N[C@@H](CCCCN)C(=O)N[C@@H](CCC(N)=O)C(=O)N[C@@H](CCCNC(=N)N)C(=O)N[C@@H](CCC(=O)O)C(=O)N[C@@H](CCC(N)=O)C(=O)N[C@@H](C)C(=O)N[C@@H](CCC(=O)O)C(=O)N[C@@H](CCCCN)C(=O)N[C@@H](CC(N)=O)C(=O)N[C@@H](CCCCN)C(=O)N[C@@H](CCC(N)=O)C(=O)N[C@H](C(=O)N[C@@H](CC(C)C)C(=O)N[C@@H](CCC(=O)O)C(=O)N[C@@H](CCC(N)=O)C(=O)N[C@H](C(N)=O)C(C)C)[C@@H](C)CC)[C@@H](C)CC)[C@@H](C)CC)C(C)C)C(C)C [151 (comp)] (H-IVLSLDVPIKLK([γGlu-C16 diacid])QILLKQERQKKQREQAEKNKQILEQV-NH2) |
| > 100 | CC[C@H](C)[C@H](NC)C(=O)N[C@H](C(=O)N[C@@H](CC(C)C)C(=O)N[C@@H](CO)C(=O)N[C@@H](CC(C)C)C(=O)N[C@@H](CC(=O)O)C(=O)N[C@@H](C(=O)N1CCC[C@H]1C(=O)N[C@H](C(=O)N[C@@H](CCCCN)C(=O)N[C@@H](CC(C)C)C(=O)N[C@@H](CCCCNC(=O)COCCOCCNC(=O)COCCOCCNC(=O)CC[C@H](NC(=O)CCCCCCCCCCCCCCCCC(=O)O)C(=O)O)C(=O)N[C@@H](CCCCN)C(=O)N[C@H](C(=O)N[C@@H](CC(C)C)C(=O)N[C@@H](CC(C)C)C(=O)N[C@@H](CCC(=O)O)C(=O)N[C@@H](CCC(N)=O)C(=O)N[C@@H](CCC(=O)O)C(=O)N[C@@H](CCCCN)C(=O)N[C@@H](CCC(N)=O)C(=O)N[C@@H](CCCCN)C(=O)N[C@@H](CCCCN)C(=O)N[C@@H](CCC(N)=O)C(=O)N[C@@H](CCCNC(=N)N)C(=O)N[C@@H](CCC(=O)O)C(=O)N[C@@H](CCC(N)=O)C(=O)N[C@@H](C)C(=O)N[C@@H](CCC(=O)O)C(=O)N[C@H](C(=O)N[C@@H](CC(N)=O)C(=O)NC(C)(C)C(=O)N[C@@H](CCC(N)=O)C(=O)N[C@H](C(=O)N[C@@H](CC(C)C)C(=O)N[C@@H](C)C(=O)N[C@@H](CCC(N)=O)C(=O)N[C@H](C(N)=O)C(C)C)[C@@H](C)CC)[C@@H](C)O)[C@@H](C)CC)[C@@H](C)CC)C(C)C)C(C)C [Cmpd 118] (H-[NMeI]VLSLD[dV]PIKLK([AEEA-AEEA-γGlu-C18 diacid])KILLEQEKQKKQREQAETN[Aib]QILAQV-NH2) |
